Viability data for 34 compounds are collected here from publication PMC11995724, “Antibiotic target discovery by integrated phenotypic and activity-based profiling of electrophilic fragments” (Cell chemical biology, 2025).

The nature of the series: in vitro. The following applies: human, hek293t cells.
As for `C=CC(=O)NC1(C(N)=O)Cc2ccccc2C1` [2-D15, 2-(prop-2-enamido)-2,3-dihydro-1H-indene-2-carboxamide], the viability (in general, a read-out of living cells in per cent, often relative to untreated cells) at 48 h, 25 µM came out at 69.7%.

As for `C=CC(=O)Nc1ccc(C(=O)N2CCC3(CC2)OCCCO3)cc1` [2-D16, N-(4-{1,5-dioxa-9-azaspiro[5.5]undecane-9-carbonyl}phenyl)prop-2-enamide], the viability at 48 h, 25 µM stood at 49.1%.

Consider `C=CC(=O)NC(CO)c1ccnn1C` (stereo not shown) [2-D17, N-[2-hydroxy-1-(1-methyl-1H-pyrazol-5-yl)ethyl]prop-2-enamide], for which the viability at 48 h, 25 µM was 45.9%.

Take `C=CC(=O)N1CCC(C(=O)NCC2([S+](C)[O-])CCC2)CC1` (stereo not shown) [2-D18, N-[(1-methanesulfinylcyclobutyl)methyl]-1-(prop-2-enoyl)piperidine-4-carboxamide]: the viability at 48 h, 25 µM was 73.4%.

On to `C=CC(=O)N(C)Cc1ncc(C(F)(F)F)n1C` [2-D19, N-methyl-N-{[1-methyl-5-(trifluoromethyl)-1H-imidazol-2-yl]methyl}prop-2-enamide], for which the viability at 48 h, 25 µM was determined as 70.6%.

On to `C=CC(=O)NCCC(=O)N1CCCN(C(=O)c2ccccc2F)CC1` [2-D20, N-{3-[4-(2-fluorobenzoyl)-1,4-diazepan-1-yl]-3-oxopropyl}prop-2-enamide], for which the viability at 48 h, 25 µM was determined as 93.7%.

For `C=CC(=O)NCc1ncccc1S(C)(=O)=O` [2-D21, N-[(3-methanesulfonylpyridin-2-yl)methyl]prop-2-enamide], the viability at 48 h, 25 µM stood at 80%.

Turning to `C=CC(=O)NCc1ccc(C(=O)N2CCCC2C(=O)N(C)C)cc1` (stereo not shown) [2-D22, N,N-dimethyl-1-{4-[(prop-2-enamido)methyl]benzoyl}pyrrolidine-2-carboxamide], the viability at 48 h, 25 µM was found to be 71.2%.

For the compound `C=CC(=O)NCC1CC(CC(=O)O)CO1` (stereo not shown) [2-E03, 2-{5-[(prop-2-enamido)methyl]oxolan-3-yl}acetic acid], the viability at 48 h, 25 µM was determined as 182%.

As to `C=CC(=O)NC1(c2ccc(C(F)(F)F)cc2)CCCC1` [2-E04, N-{1-[4-(trifluoromethyl)phenyl]cyclopentyl}prop-2-enamide], the viability at 48 h, 25 µM was 82.6%.

As for `C=CC(=O)NC[C@@H]1C[C@H](F)CN1Cc1ccnn1C` [2-E05, N-{[(2S,4S)-4-fluoro-1-[(1-methyl-1H-pyrazol-5-yl)methyl]pyrrolidin-2-yl]methyl}prop-2-enamide], the viability at 48 h, 25 µM stood at 78.5%.

In the case of `C=CC(=O)Nc1ccc(S(=O)(=O)N(C)C)c(C)c1` [2-E06, N-[4-(dimethylsulfamoyl)-3-methylphenyl]prop-2-enamide], the viability at 48 h, 25 µM amounted to 78.7%.

As for `C=CC(=O)N(Cc1cc(C)cc2c(C)c(C)[nH]c12)CC1(C)COC1` [2-E07, N-[(3-methyloxetan-3-yl)methyl]-N-[(2,3,5-trimethyl-1H-indol-7-yl)methyl]prop-2-enamide], the viability at 48 h, 25 µM worked out at 80.6%.

`C=CC(=O)N1CCC(n2cc(CO)nn2)C1` (stereo not shown) [2-E08, 1-{3-[4-(hydroxymethyl)-1H-1,2,3-triazol-1-yl]pyrrolidin-1-yl}prop-2-en-1-one]: the viability at 48 h, 25 µM was found to be 81.8%.

For `C=CC(=O)N1CCC(c2nc(C3CC3)no2)C1` (stereo not shown) [2-E09, 1-[3-(3-cyclopropyl-1,2,4-oxadiazol-5-yl)pyrrolidin-1-yl]prop-2-en-1-one], the viability at 48 h, 25 µM is 70%.

Consider `C=CC(=O)Nc1cc(NC(=O)C2CCC2)ccc1F` [2-E10, N-[4-fluoro-3-(prop-2-enamido)phenyl]cyclobutanecarboxamide], for which the viability at 48 h, 25 µM is 86.7%.

Take `C=CC(=O)NC1CN(S(=O)(=O)c2ccc3c(c2)OCCO3)C1` [2-E11, N-[1-(2,3-dihydro-1,4-benzodioxine-6-sulfonyl)azetidin-3-yl]prop-2-enamide]: the viability at 48 h, 25 µM came to 79.7%.

Regarding `C=CC(=O)N1CCC(C(=O)N2CCCC2COC)CC1` (stereo not shown) [2-E12, 1-{4-[2-(methoxymethyl)pyrrolidine-1-carbonyl]piperidin-1-yl}prop-2-en-1-one], the viability at 48 h, 25 µM was 116%.

With `C=CC(=O)N(Cc1ccc(F)c(C)c1)CC1(O)CCSCC1` [2-E13, N-[(4-fluoro-3-methylphenyl)methyl]-N-[(4-hydroxythian-4-yl)methyl]prop-2-enamide], the viability at 48 h, 25 µM amounted to 55.6%.

For `C=CC(=O)NCCS(=O)(=O)N1CCOCC1` [2-E14, N-[2-(morpholine-4-sulfonyl)ethyl]prop-2-enamide], the viability at 48 h, 25 µM turned out to be 94.6%.

Regarding `C=CC(=O)NCc1nc(C(C)(C)O)n[nH]1` [2-E15, N-{[3-(2-hydroxypropan-2-yl)-1H-1,2,4-triazol-5-yl]methyl}prop-2-enamide], the viability at 48 h, 25 µM worked out at 116%.

As to `C=CC(=O)Nc1ccc(-n2nc(C)[nH]c2=O)cc1` [2-E16, N-[4-(3-methyl-5-oxo-4,5-dihydro-1H-1,2,4-triazol-1-yl)phenyl]prop-2-enamide], the viability at 48 h, 25 µM was 101%.

For the compound `C=CC(=O)N1CCCCC(S(C)(=O)=O)C1` (stereo not shown) [2-E17, 1-(3-methanesulfonylazepan-1-yl)prop-2-en-1-one], the viability at 48 h, 25 µM turned out to be 110%.

Regarding `C=CC(=O)N1CCCC(CS(=O)(=O)NC)C1` (stereo not shown) [2-E18, N-methyl-1-[1-(prop-2-enoyl)piperidin-3-yl]methanesulfonamide], the viability at 48 h, 25 µM was found to be 95%.

Take `C=CC(=O)NC1CCC(n2c(C)ccc2C)CC1` (stereo not shown) [2-E19, N-[4-(2,5-dimethyl-1H-pyrrol-1-yl)cyclohexyl]prop-2-enamide]: the viability at 48 h, 25 µM is 71.1%.

With `C=CC(=O)N(C)CC(=O)N1CCCCC1c1nc(C)c(C)s1` (stereo not shown) [2-E20, N-{2-[2-(4,5-dimethyl-1,3-thiazol-2-yl)piperidin-1-yl]-2-oxoethyl}-N-methylprop-2-enamide], the viability at 48 h, 25 µM is 116%.

As for `C=CC(=O)Nc1ccc(C(=O)N2CCC[C@@H]2C(=O)OC)cc1` [2-E21, methyl (2R)-1-[4-(prop-2-enamido)benzoyl]pyrrolidine-2-carboxylate], the viability at 48 h, 25 µM is 104%.

Turning to `C=CC(=O)NC(CO)c1cccc(OC)c1` (stereo not shown) [2-E22, N-[2-hydroxy-1-(3-methoxyphenyl)ethyl]prop-2-enamide], the viability at 48 h, 25 µM was 122%.

With `C=CC(=O)NCCn1cc(Cl)c(C(F)(F)F)n1` [2-F03, N-{2-[4-chloro-3-(trifluoromethyl)-1H-pyrazol-1-yl]ethyl}prop-2-enamide], the viability at 48 h, 25 µM is 81.6%.

Turning to `C=CC(=O)N1CCC(C(=O)N2Cc3ccc([N+](=O)[O-])cc3C2)CC1` [2-F04, 1-[4-(5-nitro-2,3-dihydro-1H-isoindole-2-carbonyl)piperidin-1-yl]prop-2-en-1-one], the viability at 48 h, 25 µM was found to be 82.7%.

For `C=CC(=O)N1CCC(C(=O)N2CCCC(NC(=O)C(C)(C)C)C2)CC1` (stereo not shown) [2-F05, 2,2-dimethyl-N-{1-[1-(prop-2-enoyl)piperidine-4-carbonyl]piperidin-3-yl}propanamide], the viability at 48 h, 25 µM was 75.6%.

With `C=CC(=O)NCCC(=O)N1CCN(c2nc(C)cs2)C(C)C1` (stereo not shown) [2-F06, N-{3-[3-methyl-4-(4-methyl-1,3-thiazol-2-yl)piperazin-1-yl]-3-oxopropyl}prop-2-enamide], the viability at 48 h, 25 µM worked out at 92.9%.

On to `C=CC(=O)NC1CCOC(c2cnn(C)c2)C1` (stereo not shown) [2-F07, N-[2-(1-methyl-1H-pyrazol-4-yl)oxan-4-yl]prop-2-enamide], for which the viability at 48 h, 25 µM stood at 73%.

Regarding `C=CC(=O)N(CC)CC(=O)N1CCCC1c1ccc(F)cc1C` (stereo not shown) [2-F08, N-ethyl-N-{2-[2-(4-fluoro-2-methylphenyl)pyrrolidin-1-yl]-2-oxoethyl}prop-2-enamide], the viability at 48 h, 25 µM came out at 74.7%.
